From publication PMC9927415, “Tyrosine Kinase Inhibitors Display Potent Activity against Cryptosporidium parvum” (Microbiology Spectrum, 2022)

Legend:
PAK7/PAK5 = target: T1, PAK7/PAK5 (Homo sapiens, UniProt Q9P286); experiment: KINOMEscan competitive binding; details: n=1, read-out: Percent inhibition, PAK7/PAK5
T1 construct: purchased DiscoverX (KINOMEscan)

SLK = target: T2, SLK (Homo sapiens, UniProt Q9H2G2); experiment: KINOMEscan competitive binding; details: n=1, read-out: Percent inhibition, SLK
T2 construct: purchased DiscoverX (KINOMEscan)

SYK = target: T3, SYK (Homo sapiens, UniProt P43405); experiment: KINOMEscan competitive binding; details: n=1, read-out: Percent inhibition, SYK
T3 construct: purchased DiscoverX (KINOMEscan)

TIE2 = target: T4, TIE2 (Homo sapiens, UniProt Q02763); experiment: KINOMEscan competitive binding; details: n=1, read-out: Percent inhibition, TIE2
T4 construct: purchased DiscoverX (KINOMEscan)

PAK1 = target: T5, PAK1 (Homo sapiens, UniProt Q13153); experiment: KINOMEscan competitive binding; details: n=1, read-out: Percent inhibition, PAK1
T5 construct: purchased DiscoverX (KINOMEscan)

PDPK1 = target: T6, PDPK1 (Homo sapiens, UniProt O15530); experiment: KINOMEscan competitive binding; details: n=1, read-out: Percent inhibition, PDPK1
T6 construct: purchased DiscoverX (KINOMEscan)
T6 sequence (O15530 1-556): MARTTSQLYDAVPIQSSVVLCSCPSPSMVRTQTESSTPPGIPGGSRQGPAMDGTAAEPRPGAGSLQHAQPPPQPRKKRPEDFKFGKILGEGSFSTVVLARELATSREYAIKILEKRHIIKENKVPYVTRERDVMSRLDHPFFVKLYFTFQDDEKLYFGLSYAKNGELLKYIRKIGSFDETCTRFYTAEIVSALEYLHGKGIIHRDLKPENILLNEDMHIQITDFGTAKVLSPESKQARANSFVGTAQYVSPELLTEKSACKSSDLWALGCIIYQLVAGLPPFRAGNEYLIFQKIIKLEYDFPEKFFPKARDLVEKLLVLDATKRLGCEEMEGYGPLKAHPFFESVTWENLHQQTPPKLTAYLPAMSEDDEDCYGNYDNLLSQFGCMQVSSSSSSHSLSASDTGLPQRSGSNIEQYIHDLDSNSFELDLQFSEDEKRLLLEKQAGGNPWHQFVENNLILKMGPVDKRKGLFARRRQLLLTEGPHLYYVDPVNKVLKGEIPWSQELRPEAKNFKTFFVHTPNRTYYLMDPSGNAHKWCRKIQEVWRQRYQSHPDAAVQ

PAK2 = target: T7, PAK2 (Homo sapiens, UniProt Q13177); experiment: KINOMEscan competitive binding; details: n=1, read-out: Percent inhibition, PAK2
T7 construct: purchased DiscoverX (KINOMEscan)

RPS6KA6(Kin.Dom.1) = target: T8, RPS6KA6(Kin.Dom.1) (Homo sapiens, UniProt Q9UK32); experiment: KINOMEscan competitive binding; details: n=1, read-out: Percent inhibition, RPS6KA6(Kin.Dom.1)
T8 construct: RPS6KA6(Kin.Dom.1); purchased DiscoverX (KINOMEscan)

RAF1 = target: T9, RAF1 (Homo sapiens, UniProt P04049); experiment: KINOMEscan competitive binding; details: n=1, read-out: Percent inhibition, RAF1
T9 construct: purchased DiscoverX (KINOMEscan)

PAK4 = target: T10, PAK4 (Homo sapiens, UniProt O96013); experiment: KINOMEscan competitive binding; details: n=1, read-out: Percent inhibition, PAK4
T10 construct: purchased DiscoverX (KINOMEscan)

PAK3 = target: T11, PAK3 (Homo sapiens, UniProt O75914); experiment: KINOMEscan competitive binding; details: n=1, read-out: Percent inhibition, PAK3
T11 construct: purchased DiscoverX (KINOMEscan)

RPS6KA5(Kin.Dom.1) = target: T12, RPS6KA5(Kin.Dom.1) (Homo sapiens, UniProt O75582); experiment: KINOMEscan competitive binding; details: n=1, read-out: Percent inhibition, RPS6KA5(Kin.Dom.1)
T12 construct: RPS6KA5(Kin.Dom.1); purchased DiscoverX (KINOMEscan)

PTK6 = target: T13, PTK6 (Homo sapiens, UniProt Q13882); experiment: KINOMEscan competitive binding; details: n=1, read-out: Percent inhibition, PTK6
T13 construct: purchased DiscoverX (KINOMEscan)

PHKG1 = target: T14, PHKG1 (Homo sapiens, UniProt Q16816); experiment: KINOMEscan competitive binding; details: n=1, read-out: Percent inhibition, PHKG1
T14 construct: purchased DiscoverX (KINOMEscan)

ZAP70 = target: T15, ZAP70 (Homo sapiens, UniProt P43403); experiment: KINOMEscan competitive binding; details: n=1, read-out: Percent inhibition, ZAP70
T15 construct: purchased DiscoverX (KINOMEscan)
T15 sequence (P43403 1-619): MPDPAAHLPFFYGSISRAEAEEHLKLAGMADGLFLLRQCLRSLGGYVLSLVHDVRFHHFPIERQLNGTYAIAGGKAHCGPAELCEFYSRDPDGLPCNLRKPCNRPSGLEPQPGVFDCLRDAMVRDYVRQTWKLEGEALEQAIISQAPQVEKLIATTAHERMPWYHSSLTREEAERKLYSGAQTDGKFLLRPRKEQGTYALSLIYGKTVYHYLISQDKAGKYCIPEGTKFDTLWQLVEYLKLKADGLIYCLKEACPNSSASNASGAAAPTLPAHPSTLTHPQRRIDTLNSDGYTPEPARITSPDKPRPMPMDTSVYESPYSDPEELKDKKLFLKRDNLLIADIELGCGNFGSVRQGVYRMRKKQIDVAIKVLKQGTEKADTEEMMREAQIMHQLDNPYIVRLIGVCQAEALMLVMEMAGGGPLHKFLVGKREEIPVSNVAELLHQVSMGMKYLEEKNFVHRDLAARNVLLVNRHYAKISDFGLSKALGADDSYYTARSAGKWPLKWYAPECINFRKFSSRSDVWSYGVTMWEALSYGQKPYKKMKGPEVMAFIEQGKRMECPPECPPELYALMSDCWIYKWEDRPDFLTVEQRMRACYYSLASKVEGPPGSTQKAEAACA

[1] = Host cell cytotoxicity assay (CellTiter-Glo); details: human, HepG2 cells
Protocol: HepG2 cells were grown in Eagle’s Minimum Essential Medium (MEM) containing 10% FBS, 1% nonessential amino acids (NEAA) and 1% penicillin/streptomycin to >50% confluence prior to harvesting. Cells were suspended in media and 3000 cells per well were added onto 384-well clear bottom plates. Prior to addition of the cell suspension, the screening compounds (250 nl) were predispensed into plates using a liquid handler. Plates were incubated for 48 h at 37°C, 5% CO2. After 48 h of incubation, plates were equilibrated at room temperature for 30 min before luminescence signal was measured using CellTiter-Glo Reagent. Plates were kept at room temperature for 10 min to stabilize the signal and then read using a ViewLux luminescence reader. The HepG2 CC50 (from the host cell cytotoxicity assays) and C. parvum mean EC50 (from parasite growth inhibition assays) values were used to calculate selectivity index.

PRKCH = target: T16, PRKCH (Homo sapiens, UniProt P24723); experiment: KINOMEscan competitive binding; details: n=1, read-out: Percent inhibition, PRKCH
T16 construct: purchased DiscoverX (KINOMEscan)
T16 sequence (P24723 whole entry): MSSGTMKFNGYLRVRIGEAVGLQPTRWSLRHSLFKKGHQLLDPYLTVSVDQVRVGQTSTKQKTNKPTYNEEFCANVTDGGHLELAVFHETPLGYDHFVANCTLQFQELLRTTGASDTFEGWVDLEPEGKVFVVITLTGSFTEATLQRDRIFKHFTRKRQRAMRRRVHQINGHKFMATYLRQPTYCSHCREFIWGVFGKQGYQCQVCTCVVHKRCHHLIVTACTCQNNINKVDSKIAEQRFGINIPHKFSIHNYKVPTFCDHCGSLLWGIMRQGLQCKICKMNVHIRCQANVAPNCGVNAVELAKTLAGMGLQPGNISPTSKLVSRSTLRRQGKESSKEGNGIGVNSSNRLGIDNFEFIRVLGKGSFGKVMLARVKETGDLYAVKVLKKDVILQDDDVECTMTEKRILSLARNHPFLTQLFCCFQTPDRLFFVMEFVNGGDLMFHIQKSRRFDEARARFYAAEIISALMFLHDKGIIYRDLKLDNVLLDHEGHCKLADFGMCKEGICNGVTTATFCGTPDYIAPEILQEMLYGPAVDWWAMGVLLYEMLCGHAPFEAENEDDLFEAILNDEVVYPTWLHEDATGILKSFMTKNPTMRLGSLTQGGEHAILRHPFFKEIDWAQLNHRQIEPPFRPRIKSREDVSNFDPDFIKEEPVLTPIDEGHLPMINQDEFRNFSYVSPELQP

T13 sequence (Q13882 whole entry): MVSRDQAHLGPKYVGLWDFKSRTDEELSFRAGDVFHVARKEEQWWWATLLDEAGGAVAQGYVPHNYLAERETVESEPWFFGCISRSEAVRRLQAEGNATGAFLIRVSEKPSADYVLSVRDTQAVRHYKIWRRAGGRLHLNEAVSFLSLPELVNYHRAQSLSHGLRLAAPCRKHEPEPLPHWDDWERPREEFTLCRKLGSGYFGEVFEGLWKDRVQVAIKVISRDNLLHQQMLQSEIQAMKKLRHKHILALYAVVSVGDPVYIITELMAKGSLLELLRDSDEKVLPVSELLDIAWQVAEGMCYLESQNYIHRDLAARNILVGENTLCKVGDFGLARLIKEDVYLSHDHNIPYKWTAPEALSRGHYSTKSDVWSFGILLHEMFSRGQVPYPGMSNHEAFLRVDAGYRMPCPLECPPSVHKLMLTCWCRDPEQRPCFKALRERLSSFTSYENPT
T4 sequence (Q02763 23-1124): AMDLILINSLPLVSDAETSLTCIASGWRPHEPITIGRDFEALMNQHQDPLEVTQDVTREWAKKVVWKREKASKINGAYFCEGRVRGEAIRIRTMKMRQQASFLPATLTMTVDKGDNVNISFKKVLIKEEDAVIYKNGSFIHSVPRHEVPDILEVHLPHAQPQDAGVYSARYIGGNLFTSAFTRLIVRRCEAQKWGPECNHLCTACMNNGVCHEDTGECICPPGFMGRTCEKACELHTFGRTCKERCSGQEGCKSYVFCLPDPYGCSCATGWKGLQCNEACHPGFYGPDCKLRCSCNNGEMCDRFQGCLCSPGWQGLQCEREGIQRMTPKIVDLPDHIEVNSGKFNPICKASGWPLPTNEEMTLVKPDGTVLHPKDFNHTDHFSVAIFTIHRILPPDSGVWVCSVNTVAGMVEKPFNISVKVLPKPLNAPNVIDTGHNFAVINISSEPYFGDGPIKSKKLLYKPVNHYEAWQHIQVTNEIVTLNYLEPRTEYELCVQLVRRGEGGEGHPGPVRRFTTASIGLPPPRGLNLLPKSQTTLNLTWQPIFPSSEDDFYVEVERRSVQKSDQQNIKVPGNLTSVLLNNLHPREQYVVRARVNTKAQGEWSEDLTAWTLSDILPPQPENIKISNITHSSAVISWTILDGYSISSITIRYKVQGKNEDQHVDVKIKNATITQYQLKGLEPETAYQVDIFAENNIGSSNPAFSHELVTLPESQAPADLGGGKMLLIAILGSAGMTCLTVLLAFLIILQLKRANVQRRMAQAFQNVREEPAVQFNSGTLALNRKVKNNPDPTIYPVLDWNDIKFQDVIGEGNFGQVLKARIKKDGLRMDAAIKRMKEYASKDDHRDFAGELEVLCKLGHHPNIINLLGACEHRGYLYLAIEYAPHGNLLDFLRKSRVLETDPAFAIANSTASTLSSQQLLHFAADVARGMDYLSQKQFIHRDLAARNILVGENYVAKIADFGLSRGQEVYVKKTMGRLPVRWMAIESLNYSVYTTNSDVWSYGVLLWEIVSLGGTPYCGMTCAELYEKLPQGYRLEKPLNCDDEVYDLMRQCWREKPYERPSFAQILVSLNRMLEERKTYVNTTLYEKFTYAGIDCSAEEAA
T11 sequence (O75914 whole entry): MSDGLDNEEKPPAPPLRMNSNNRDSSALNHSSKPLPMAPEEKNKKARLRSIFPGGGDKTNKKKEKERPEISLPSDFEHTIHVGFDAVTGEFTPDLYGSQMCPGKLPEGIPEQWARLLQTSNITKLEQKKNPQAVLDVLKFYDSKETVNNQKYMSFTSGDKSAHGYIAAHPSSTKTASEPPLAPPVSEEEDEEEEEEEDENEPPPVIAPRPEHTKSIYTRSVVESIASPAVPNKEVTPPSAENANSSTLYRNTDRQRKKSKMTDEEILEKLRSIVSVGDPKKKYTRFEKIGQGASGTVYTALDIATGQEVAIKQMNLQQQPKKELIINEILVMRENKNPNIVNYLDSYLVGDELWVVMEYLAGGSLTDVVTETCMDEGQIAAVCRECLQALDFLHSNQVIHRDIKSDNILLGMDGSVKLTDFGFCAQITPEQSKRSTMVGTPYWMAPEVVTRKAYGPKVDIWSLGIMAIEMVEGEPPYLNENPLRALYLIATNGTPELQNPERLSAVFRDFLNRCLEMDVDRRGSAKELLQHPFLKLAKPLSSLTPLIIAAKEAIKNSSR
T14 sequence (Q16816 whole entry): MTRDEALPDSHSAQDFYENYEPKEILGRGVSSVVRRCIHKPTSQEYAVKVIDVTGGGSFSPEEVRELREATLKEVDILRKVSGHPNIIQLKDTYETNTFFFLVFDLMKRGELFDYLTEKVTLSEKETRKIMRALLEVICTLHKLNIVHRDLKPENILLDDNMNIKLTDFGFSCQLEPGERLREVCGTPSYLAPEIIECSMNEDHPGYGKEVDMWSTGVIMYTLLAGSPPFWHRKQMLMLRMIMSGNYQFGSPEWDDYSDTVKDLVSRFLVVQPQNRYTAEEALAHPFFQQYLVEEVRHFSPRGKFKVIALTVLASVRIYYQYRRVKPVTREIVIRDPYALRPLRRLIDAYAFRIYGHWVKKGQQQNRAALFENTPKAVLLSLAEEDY
T1 sequence (Q9P286 whole entry): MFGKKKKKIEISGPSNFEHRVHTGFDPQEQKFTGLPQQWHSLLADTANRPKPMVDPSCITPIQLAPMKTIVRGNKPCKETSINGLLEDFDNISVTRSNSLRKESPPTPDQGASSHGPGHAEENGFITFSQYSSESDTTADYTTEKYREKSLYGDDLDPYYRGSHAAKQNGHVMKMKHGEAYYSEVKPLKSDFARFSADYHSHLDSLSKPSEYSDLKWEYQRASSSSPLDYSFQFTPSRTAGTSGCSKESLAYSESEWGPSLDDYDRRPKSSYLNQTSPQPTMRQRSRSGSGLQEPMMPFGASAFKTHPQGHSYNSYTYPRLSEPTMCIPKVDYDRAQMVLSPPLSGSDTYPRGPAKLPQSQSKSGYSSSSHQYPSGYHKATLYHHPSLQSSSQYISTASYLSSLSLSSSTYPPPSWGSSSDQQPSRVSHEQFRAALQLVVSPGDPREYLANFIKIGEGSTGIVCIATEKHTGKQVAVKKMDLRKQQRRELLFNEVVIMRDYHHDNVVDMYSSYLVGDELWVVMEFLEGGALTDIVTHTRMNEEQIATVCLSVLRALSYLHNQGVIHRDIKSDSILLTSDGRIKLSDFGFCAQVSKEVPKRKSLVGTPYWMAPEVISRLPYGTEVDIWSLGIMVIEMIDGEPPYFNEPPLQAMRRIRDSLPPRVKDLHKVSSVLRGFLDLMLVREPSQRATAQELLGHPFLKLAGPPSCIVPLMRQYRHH
T9 sequence (P04049 whole entry): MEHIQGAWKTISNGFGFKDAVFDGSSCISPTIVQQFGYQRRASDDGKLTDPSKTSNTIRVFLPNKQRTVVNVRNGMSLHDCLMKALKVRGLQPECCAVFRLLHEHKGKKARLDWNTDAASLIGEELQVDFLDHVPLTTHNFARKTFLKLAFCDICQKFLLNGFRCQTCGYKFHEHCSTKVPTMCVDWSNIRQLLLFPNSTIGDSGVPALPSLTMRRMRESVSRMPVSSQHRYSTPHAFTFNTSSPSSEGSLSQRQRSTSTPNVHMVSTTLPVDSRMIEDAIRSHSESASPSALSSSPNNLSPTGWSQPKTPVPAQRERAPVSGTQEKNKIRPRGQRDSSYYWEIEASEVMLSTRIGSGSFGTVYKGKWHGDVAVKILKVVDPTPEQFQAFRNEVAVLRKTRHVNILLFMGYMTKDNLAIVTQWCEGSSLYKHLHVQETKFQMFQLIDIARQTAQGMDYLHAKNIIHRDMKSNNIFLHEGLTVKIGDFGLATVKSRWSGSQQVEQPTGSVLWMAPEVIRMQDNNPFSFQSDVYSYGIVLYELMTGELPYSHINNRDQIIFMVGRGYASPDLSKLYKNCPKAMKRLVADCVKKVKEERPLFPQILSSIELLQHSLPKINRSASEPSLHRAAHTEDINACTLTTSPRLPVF
T8 sequence (Q9UK32 1-400 limits assumed): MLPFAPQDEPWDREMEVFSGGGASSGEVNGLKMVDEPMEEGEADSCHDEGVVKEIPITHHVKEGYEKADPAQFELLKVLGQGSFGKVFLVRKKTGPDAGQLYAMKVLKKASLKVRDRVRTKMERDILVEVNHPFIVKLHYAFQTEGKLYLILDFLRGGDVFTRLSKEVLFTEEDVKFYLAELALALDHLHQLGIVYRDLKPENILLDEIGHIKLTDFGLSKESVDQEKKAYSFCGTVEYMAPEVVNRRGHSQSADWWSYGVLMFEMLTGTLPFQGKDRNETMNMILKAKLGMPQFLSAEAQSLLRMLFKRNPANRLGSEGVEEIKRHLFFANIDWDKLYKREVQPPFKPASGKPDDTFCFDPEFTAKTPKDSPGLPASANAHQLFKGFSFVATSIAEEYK

Row | SMILES | inhibition at 10 µM (PAK7/PAK5) | inhibition at 10 µM (SLK) | inhibition at 10 µM (SYK) | inhibition at 10 µM (TIE2) | inhibition at 10 µM (PAK1) | inhibition at 10 µM (PDPK1) | inhibition at 10 µM (PAK2) | inhibition at 10 µM (RPS6KA6(Kin.Dom.1)) | inhibition at 10 µM (RAF1) | inhibition at 10 µM (PAK4) | inhibition at 10 µM (PAK3) | inhibition at 10 µM (RPS6KA5(Kin.Dom.1)) | inhibition at 10 µM (PTK6) | inhibition at 10 µM (PHKG1) | inhibition at 10 µM (ZAP70) | CC50 at 48 h [1] | inhibition at 10 µM (PRKCH)
1 | Fc1cccc(COc2ccc(Nc3ncnc4c3CN(CCN3CCOCC3)CC4)cc2Cl)c1 [Compound 6] | 0% | 0% | 0% | 0% | 0% | 0% | 97.6% | 0% | 0% | 0% | 0% | 0% | 0% | 0% | 0% | 46.7 µM | 0%
2 | COc1cc(Nc2nccc(-c3sc(N)nc3-c3cccc(NC(=O)c4c(F)cccc4F)c3)n2)cc(OC)c1OC [Compound 7] | 89.4% | 99.8% | 98.9% | 100% | 99.8% | 68.3% | 90% | 83.2% | 100% | 0% | 94.9% | 97.4% | 100% | 0% | 0% | 2.6 µM | 87.7%
3 | C[C@@H](Oc1cc(-c2cnc3ccccn23)sc1C(N)=O)c1ccccc1Cl [Compound 8] | 0% | 100% | 0% | 0% | 0% | 0% | 0% | 0% | 0% | 0% | 0% | 0% | 0% | 0% | 0% | – | 0%
4 | c1ccc(COc2cccc(-c3ccnc4[nH]ccc34)c2)cc1 [Compound 9] | 0% | 0% | 0% | 0% | 0% | 0% | 0% | 0% | 0% | 0% | 0% | 0% | 0% | 0% | 0% | – | 87.9%
5 | Clc1ccc(Nc2ncc(-c3ccccc3)s2)cc1 [Compound 10] | 0% | 0% | 0% | 0% | 0% | 0% | 0% | 0% | 0% | 0% | 0% | 0% | 0% | 0% | 0% | – | 0%
